Patent US11197914B2, “GLP-1R/GCGR dual target agonist polypeptide for treatment of fatty liver diseases, hyperlipemia and arteriosclerosis” (Shenzhen Turier Biotech Co., Ltd., priority 2016, dated 2021)
*1 amine or outer side, *2 acyl side, *3 side chain or, on linkers, in order; H or OH if unused. Primed or numbered codes have the meaning given here. Where no end group is shown, it is not given here. Side-chain parts run from the residue outwards. [ ]: non-standard residue; d: D form. The star is where a group is joined. γGlu = O=C(O)[C@H](CCC(=O)[*:2])N[*:1]; Palmitoyl = CCCCCCCCCCCCCCCC(=O)*; PEG2′ = not defined here

Columns and labels:
[1] = test system: db/db diabetic obese mice; assay type: in vivo; settings: 10 μg/mouse subcutaneous once every two days, 18 days
Protocol: 12-week-old db/db diabetic obese mice were randomly grouped into 3 groups (12-hour fasting before grouping), 6 mice in each group. Mice in each group were injected subcutaneously at a dose of 10 μg/mouse, and mice in the blank group were injected subcutaneously with PBS. The volume for each group was 0.25 ml/mouse once every two days (at 48-hour interval) for 18 days. At the end of the experiment, blood was taken from the orbital venous plexus of each mouse to measure glycosylated hemoglobin (HbAlc), insulin (INS), triglyceride (TG) and total cholesterol (TC) levels in the serum of the mouse. The liver, pancreas, heart, lungs and spleen were taken for HE pathological staining at the same time. GraphPad Prismversion6 software was used for statistical analysis.

[2] = test system: high fat diet-induced hyperlipidemic mice; experiment: High fat diet-induced NAFLD and hyperlipemia in mice; assay type: in vivo, C57 mice; settings: 500 μg/kg subcutaneous once every two days, 12 weeks
Protocol: 6-8-week-old C57 mice with body weight of 20-25 g at SPF level were provided by Guangdong Medical Laboratory Animal Center and tested by SPF level laboratory in Laboratory Animal Center of Guangdong Pharmaceutical University. C57 mice were divided into control group, hepatic fibrosis model group and treatment group, 8 mice for each group. The mice were fed with high fat diet (HFD) for 12 weeks. For the treatment group, subcutaneous injection compounds 2 and 6 with 500 μg/kg of body weight were used once every two days for continuous 12 weeks. PBS with same volume and same frequency was administered for the control group. After the end of the experiment, the mice were subject to anesthesia to collect serum and liver specimens.

[3] = test system: CCl4-induced hepatic fibrosis mice; experiment: CCl4-induced hepatic fibrosis in mice; assay type: in vivo, C57 mice; settings: 500 μg/kg subcutaneous once every two days, 6 weeks
Protocol: 6-8-week-old C57 mice with body weight of 20-25 g at SPF level were provided by Guangdong Medical Laboratory Animal Center and tested by SPF level laboratory in Laboratory Animal Center of Guangdong Pharmaceutical University. C57 mice were divided into control group, hepatic fibrosis model group and treatment group, 8 mice for each group. A mouse was subject to intraperitoneal injection with 20% CCl4 (2 mL/kg, diluted with olive oil at ratio of 1:4) twice a week for continuous 6 weeks to form a stable hepatic fibrosis animal model. For the treatment group, one of subcutaneous injection compounds 2, 6 and 22 with 500 μg/kg of body weight was used respectively once every two days for continuous 6 weeks. Olive oil with same volume and same frequency was administered for the control group and stopped until the end of 6-week experiment. After the end of the experiment, the mice were subject to anesthesia to collect serum and liver specimens. The liver was fixed with 10% formalin and embedded with paraffin.

[4] = test system: Hepatic stellate cell strain LX-2; experiment: In vitro inhibition of hepatic fibrosis: expression of LX-2 cell activation marker α-SMA (Western Blot, α-SMA/β-actin); assay type: cell-based, human; settings: LX-2 cells
Protocol: Hepatic stellate cell strain LX-2 was selected to study and observe the effect of different doses of test substances on the expression of LX-2 cell activation marker […]. Hepatic stellate cell LX-2 was laid on 35 mm cell culture plate, cultured with DMEM (high glucose)+10% FBS+1% double-antibody culture medium (Thermo Fisher), placed overnight when the cells grew to 70% convergence at 37° C. and under the condition of 5% CO2, and treated with the above compounds 1-37 (dissolved in PBS) for 48 hours the next day morning to extract cell protein, carry out Western Blot, and take β-actin as internal reference and analyze the expression quantities of α-SMA and β-actin by a gray level of Image J 1.50i. PBS with the same volume as that in experimental group was added in negative control. […] The integrating gray level of α-SMA/β-actin in the negative control group was 100% to analyze the in vitro inhibition activity of hepatic fibrosis of tested polypeptide.

His-(D-Ser)-Gln-Gly-Thr-Phe-Thr-Ser-Asp-Tyr-Ser-Lys-Tyr-Leu-Asp-Lys(PEG2-PEG2-γGlu-CO(CH2)14CH3)-Arg-Arg-Ala-Gln-Asp-Phe-Val-Gln-Trp-Leu-Met-Asn-Thr-Gly-Gly-Pro-Ser-Ser-Gly-Ala-Pro-Pro-Pro-Ser-NH2 (H[dS]QGTFTSDYSKYLDK([PEG2′-PEG2′-γGlu-Palmitoyl])RRAQDFVQWLMNTGGPSSGAPPPS-NH2) [Compound 6]
Atrophy lesions of pancreatic islets (HE staining) [1]: significantly improve | Inhibition of liver lipoid vacuolar degeneration and lipid inflammation, comparison between compounds [1]: better inhibition effect | Liver lipoid vacuolar degeneration and lipid inflammation (HE staining) [1]: significantly inhibit | Total cholesterol (TC) level in serum [1]: obviously inhibit | Triglyceride (TG) level in serum [1]: obviously inhibit | Glycosylated hemoglobin (HbAlc) level in serum ([1]; vs blank group): significantly reduced | Insulin (INS) level in serum ([1]; vs blank group): up-regulated | Fatty liver complicated by hepatic fibrosis (Sirius red) [2]: effectively inhibit fatty liver complicated by hepatic fibrosis | HFD-induced increase of body weight [2]: effectively inhibit | Hepatic triglyceride (TG) content [2]: effectively reduce | Liver lipid deposition (Oil Red O) [2]: effectively reduce | Liver lipoid degeneration and non-alcoholic steatohepatitis (liver tissue biopsy) [2]: inhibit liver lipoid degeneration and non-alcoholic steatohepatitis | Treatment effect on liver lipid deposition and hepatic TG compared with Liraglutide [2]: obviously better than Liraglutide | Control of body weight, comparison between treatments ([2]; compared with liraglutide): most obviously | ALT level of serum [3]: obviously reduce | CCl4-induced liver injury and fibrosis stage (HE, Sirius Red) [3]: obviously improved | Inhibition of LX-2 cell activation marker α-SMA (in words, from Table 2) [4]: obviously reduce | Relative expression of α-SMA (α-SMA/β-actin, %) ([4]; 1 μM, 48 hours, negative control = 100%): 41.19%
